≈ marks a conversion by molar mass, not a printed value. Calls of active or inactive are those of the source.

The target in the first test is T1, Enoyl-[acyl-carrier-protein] reductase [NADH] (Mycobacterium tuberculosis) (UniProt P9WGR1).
T1 sequence (whole entry): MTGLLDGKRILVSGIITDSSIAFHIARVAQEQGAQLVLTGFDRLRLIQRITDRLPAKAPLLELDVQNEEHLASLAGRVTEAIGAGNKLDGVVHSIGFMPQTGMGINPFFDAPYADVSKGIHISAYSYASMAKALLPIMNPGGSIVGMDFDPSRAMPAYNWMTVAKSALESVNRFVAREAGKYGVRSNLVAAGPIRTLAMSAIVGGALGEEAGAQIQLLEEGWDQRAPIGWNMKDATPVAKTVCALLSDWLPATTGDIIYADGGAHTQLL
To be noted: 20 uM.
As to `N#Cc1c(NC(=O)C2CC(=O)N(C3CCCCC3)C2)sc2c1CCCC2` (configuration not stated), the result was inactive.

As for `O=C(NC1CCCCC1)C1CC(=O)N(C2CCCCC2)C1` (configuration not stated), the outcome was inactive.

Regarding `O=C(Nc1nnc(CCc2ccccc2)s1)C1CC(=O)N(C2CCCCC2)C1` (configuration not stated), the outcome was inactive.

`CCc1nnc(NC(=O)C2CC(=O)N(C3CCCCC3)C2)s1` (configuration not stated): the result was inactive.

As for `O=C(C1CC(=O)N(C2CCCCC2)C1)N1CCN(c2ccccc2)CC1` (configuration not stated), the result was inactive.

Take `COCc1nnc(NC(=O)C2CC(=O)N(C3CCCCC3)C2)s1` (configuration not stated): the outcome was inactive.

For the molecule `O=C(NC1CCCC1)C1CC(=O)N(C2CCCCC2)C1` (configuration not stated), the result was inactive.

`O=C(C1CC(=O)N(C2CCCCC2)C1)N1CCOCC1` (configuration not stated): the outcome was inactive.

For the molecule `CCC(C)NC(=O)C1CC(=O)N(C2CCCCC2)C1` (configuration not stated), the outcome was inactive.

On to `Cc1nnc(NC(=O)C2CC(=O)N(C3CCCCC3)C2)s1` (configuration not stated), for which the result was inactive.

For `O=C(Nc1nnc(Cc2ccccc2)s1)C1CC(=O)N(C2CCCCC2)C1` (configuration not stated), the outcome was inactive.

On to `CN1CCN(C(=O)C2CC(=O)N(C3CCCCC3)C2)CC1` (configuration not stated), for which the result was inactive.

The test system of a further test is Mycobacterium tuberculosis. In words: Antibacterial activity against Mycobacterium tuberculosis H37Rv by alamar blue assay. Type of test: functional.
Settings: not given
In general terms: The colour change of resazurin is a common sign of viable cells or microbes.
What is called MIC is the smallest concentration in the dilution series that meets the test's criterion for growth inhibition. `CN(Cc1c2ccccc2cc2ccccc12)C(=O)C1CC(=O)N(C2CCCCCC2)C1` (configuration not stated): inhibition of growth (MIC) required 125 µM (≈ 53.6 µg/mL).

In turn, `CN(Cc1c2ccccc2cc2ccccc12)C(=O)C1CC(=O)N(C2CC3CCC2C3)C1` (configuration not stated) had a minimum inhibitory concentration (MIC) of 125 µM (≈ 53.3 µg/mL).

On to `O=C(Nc1cc(Br)cc(C(F)(F)F)c1)C1CC(=O)N(C2CCCCC2)C1` (configuration not stated), for which the minimum inhibitory concentration (MIC) stood at 62.5 µM (≈ 27.1 µg/mL).

Take `CN(Cc1c2ccccc2cc2ccccc12)C(=O)C1CC(=O)N(C2CCCCC2)C1` (configuration not stated): 125 µM (≈ 51.8 µg/mL) was the least that counted as inhibitory (MIC).

For the molecule `O=C(Nc1cccc(OCc2ccccc2)c1)C1CC(=O)N(C2CCCCC2)C1` (configuration not stated), the MIC came to 125 µM (≈ 49.1 µg/mL).

`CN(Cc1c2ccccc2cc2ccccc12)C(=O)C1CC(=O)N(C2CCCCCCC2)C1` (configuration not stated) yielded an MIC of 62.5 µM (≈ 27.7 µg/mL).

The target in the next test is T2, Enoyl-[acyl-carrier-protein] reductase [NADH] (Mycobacterium tuberculosis, UniProt P9WGR1).
T2 sequence (P9WGR1 whole entry): T1 sequence (whole entry)
Settings: not given
One may read the IC50 as the point on the concentration scale where inhibition reaches its midpoint. A higher IC50 goes with a need for much substance. With `O=C(Nc1cccc(-c2ccccc2)c1)C1CC(=O)N(C2CCCCC2)C1` (stereo in doubt; p24), the IC50 was determined as 390 nM.

Regarding `O=C(Nc1cccc(-c2ccccc2)c1)C1CC(=O)N(C2CCCCC2)C1` (stereo in doubt; p24a), the IC50 was found to be 2100 nM.

The molecule `CN(Cc1c2ccccc2cc2ccccc12)C(=O)C1CC(=O)N(C2CCCCCC2)C1` (configuration not stated) gave an IC50 of 320 nM.

Regarding `CN(Cc1c2ccccc2cc2ccccc12)C(=O)C1CC(=O)N(C2CC3CCC2C3)C1` (configuration not stated), the IC50 worked out at 850 nM.

`O=C(Nc1cccc(Br)c1)C1CC(=O)N(C2CCCCC2)C1` (configuration not stated) gave an IC50 of 890 nM.

Molecule `O=C(Nc1cc(Cl)cc(Cl)c1)C1CC(=O)N(C2CCCCC2)C1` (stereo in doubt; d11a) gave an IC50 of 8160 nM.

For `O=C(Nc1cccc(Br)c1)C1CC(=O)N(c2ccccc2)C1` (configuration not stated), inhibition was half-maximal at 13500 nM (IC50).

In the case of `O=C(Nc1cc(Cl)cc(Cl)c1)C1CC(=O)N(C2CCCCC2)C1` (stereo in doubt; d11), half-maximal inhibition (IC50) required 390 nM.

Regarding `O=C(Nc1cccc(Cc2ccccc2)c1)C1CC(=O)N(C2CCCCC2)C1` (configuration not stated), the IC50 is 410 nM.

As to `Cc1ccc(Cl)cc1NC(=O)C1CC(=O)N(C2CCCCC2)C1` (configuration not stated), the IC50 was 970 nM.

`O=C(Nc1cc(Br)cc(C(F)(F)F)c1)C1CC(=O)N(C2CCCCC2)C1` (configuration not stated) displayed an IC50 of 850 nM.

For `CN(Cc1c2ccccc2cc2ccccc12)C(=O)C1CC(=O)N(C2CCCCC2)C1` (configuration not stated), the IC50 came to 750 nM.

`O=C(Nc1cc(-c2ccccc2)c(O)c(-c2ccccc2)c1)C1CC(=O)N(C2CCCCCC2)C1` (configuration not stated) came in with an IC50 of 270 nM.

On to `O=C(Nc1cccc(-c2ccccc2)c1)C1CC(=O)N(C2CC3CCC2C3)C1` (configuration not stated), for which the IC50 was determined as 460 nM. Compared with the last molecule, the IC50 is about 1.7-fold higher.

`O=C(Nc1cccc(-c2ccccc2)c1)C1CC(=O)N(C2CCCCC2)C1` (stereo in doubt; p24b) showed an IC50 of 255 nM.

`CN(Cc1c2ccccc2cc2ccccc12)C(=O)C1CC(=O)N(C2CCCCCCC2)C1` (configuration not stated) gave an IC50 of 620 nM.

`O=C(Nc1cc(Cl)cc(Cl)c1)C1CC(=O)N(C2CCCCC2)C1` (stereo in doubt; d11b) yielded an IC50 of 200 nM.

The target in a further test is T1, Enoyl-[acyl-carrier-protein] reductase [NADH] (Mycobacterium tuberculosis). To be noted: 2.4 uM.
Description: Inhibition of Mycobacterium tuberculosis InhA at 2.4 uM
Usually inhibition stands for the change of the read-out against control, counted positive when it falls. Lower therefore signals a weak effect. `O=C(Nc1cc(-c2ccccc2)c(O)c(-c2ccccc2)c1)C1CC(=O)N(C2CCCCC2)C1` (stereo in doubt; p64a) yielded an inhibition of 72.7%.

For a further test the target is unchanged.
Settings: not given
As to `NC(=O)c1cccc(NC(=O)C2CC(=O)N(C3CCCCC3)C2)c1` (configuration not stated), the result was inactive.

Take `CC(=O)c1cccc(NC(=O)C2CC(=O)N(C3CCCCC3)C2)c1` (configuration not stated): the outcome was inactive.

In the case of `O=C(Nc1cccc(O)c1)C1CC(=O)N(C2CCCCC2)C1` (configuration not stated), the outcome was inactive.

Turning to `CS(=O)(=O)Nc1cccc(NC(=O)C2CC(=O)N(C3CCCCC3)C2)c1` (configuration not stated), the outcome was inactive.

Turning to `COc1cccc(NC(=O)C2CC(=O)N(C3CCCCC3)C2)c1` (configuration not stated), the result was inactive.

Staying with this test, now noted: concentration not given here.
As to `O=C(C1CC(=O)N(C2CCCCC2)C1)N1CCc2ccccc21` (configuration not stated), the inhibition was determined as 65%.

For the origin of these results see ChEMBL document CHEMBL1137386, “Pyrrolidine carboxamides as a novel class of inhibitors of enoyl acyl carrier protein reductase from Mycobacterium tuberculosis” (J Med Chem, 2006).
